Measured values: ChEMBL document CHEMBL1155502, “Modulation of 11beta-hydroxysteroid dehydrogenase type 1 activity by 1,5-substituted 1H-tetrazoles” (Bioorg Med Chem Lett, 2010)

experiment: Metabolic stability in human liver microsomes assessed as compound remaining after 30 mins; format: ADME, Microsome; details: read-out: Stability

Structure (SMILES)	remaining at 0.5 h
O=C(CCc1nnnn1-c1ccccc1)C1CCCCC1	11%
O=C(COc1nnnn1-c1ccccc1)c1ccccc1	4%
O=C(CCc1nnnn1Cc1ccccc1)c1ccccc1	33%
O=C(CCn1nnnc1-c1cccc(Cl)c1)c1ccccc1	20%
O=C(CCn1nnnc1-c1cccnc1)c1ccccc1	81%
O=C(CCn1nnnc1-c1ccccc1)c1ccccc1	29%
COc1ccccc1-c1nnnn1CCC(=O)c1ccccc1	9%
COc1cccc(C(=O)CCc2nnnn2-c2ccccc2)c1	14%
O=C(CCn1nnnc1-c1ccc2c(c1)OCO2)c1ccccc1	11%
COc1cccc(-n2nnnc2CCC(=O)c2ccccc2)c1	6%
N#Cc1ccc(-n2nnnc2CCC(=O)c2ccccc2)cc1	37%
CC(C)(C)C(=O)C[S+]([O-])c1nnnn1-c1ccccc1 (configuration not stated)	25%
O=C(CCc1nnnn1-c1ccccc1)c1cccc(F)c1	21%
O=C(CCc1nnnn1-c1ccccc1)c1cccc(Cl)c1	8%
CC(C)(C)C(=O)CS(=O)(=O)c1nnnn1-c1ccccc1	4%
O=C(CCc1nnnn1C1CCCCC1)c1ccccc1	14%

Structure (SMILES)	remaining at 0.5 h
O=C(CCc1nnnn1-c1ccccc1)c1ccccc1	88%
O=C(CCn1nnnc1-c1ccsc1)c1ccccc1	6%
Cc1ccccc1-n1nnnc1CCC(=O)c1ccccc1	22%
COc1ccc(-n2nnnc2CCC(=O)c2ccccc2)cc1	12%
O=C(CCc1nnnn1C1CC1)c1ccccc1	73%
Cc1ccc(-n2nnnc2CCC(=O)c2ccccc2)cc1	2%
O=C(CCc1nnnn1-c1ccc(Cl)cc1)c1ccccc1	34%
COc1ccccc1-n1nnnc1CCC(=O)c1ccccc1	42%
O=C(CCn1nnnc1-c1cnccn1)c1ccccc1	31%
O=C(CCn1nnnc1-c1ncccn1)c1ccccc1	53%
COc1ccc(-c2nnnn2CCC(=O)c2ccccc2)cc1	18%
O=C(CCn1nnnc1-c1ccccc1Cl)c1ccccc1	5%
Cc1cccc(-n2nnnc2CCC(=O)c2ccccc2)c1	2%
O=C(CCc1nnnn1-c1cccnc1)c1ccccc1	81%
O=C(CCc1nnnn1C1CCc2ccccc21)c1ccccc1 (configuration not stated)	1%
O=C(CCc1nnnn1C1CCCc2ccccc21)c1ccccc1 (configuration not stated)	7%
